Reference: patent US20260262643A1, “HERBICIDAL BENZOXAZINES” (FMC CORPORATION, priority 2022, published 2026)

Columns and labels:
[1] = test system: corn; assay: Test C preemergence; format: in vivo, Zea mays
Procedure, shortened: (§1)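 Visual injury ratings on a 0–100 scale (100 = complete control) were made against untreated controls 10 days after treatment in the greenhouse. Compounds, formulated with surfactant in non-phytotoxic solvent, were sprayed on soil preemergence or onto one- to two-leaf plants 2–10 cm tall postemergence.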

[2] = test system: soybean; assay: Test C postemergence; format: in vivo, Glycine max; conditions: 10 days, 0 to 100 scale (0 no effect, 100 complete control)
Procedure, shortened: as §1

[3] = test system: horseweed; assay: Test C postemergence; format: in vivo, Erigeron canadensis; conditions: 10 days, 0 to 100 scale (0 no effect, 100 complete control)
Procedure, shortened: as §1

[4] = test system: oat, wild; assay: Test C postemergence; format: in vivo, Avena fatua; conditions: 10 days, 0 to 100 scale (0 no effect, 100 complete control)
Procedure, shortened: as §1

[5] = test system: kochia; assay: Test C postemergence; format: in vivo, Bassia scoparia; conditions: 10 days, 0 to 100 scale (0 no effect, 100 complete control)
Procedure, shortened: as §1

[6] = test system: blackgrass; assay: Test C preemergence; format: in vivo, Alopecurus myosuroides
Procedure, shortened: as §1

[7] = test system: kochia; assay: Test C preemergence; format: in vivo, Bassia scoparia
Procedure, shortened: as §1

[8] = test system: barnyardgrass; assay: Test C preemergence; format: in vivo, Echinochloa crusgalli
Procedure, shortened: as §1

[9] = test system: ducksalad; assay: Test D flooded paddy test; format: in vivo, Heteranthera limosa; conditions: 250 g ai/ha, applied to paddy water, visual rating after 13 to 14 days, scale 0 to 100 (0 no effect, 100 complete control)
Procedure, shortened: (§2)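 Compounds go straight into paddy water over 2-leaf plants in pots flooded to 3 cm. Greenhouse holding lasts 13 to 14 days. Injury is scored by eye against controls from 0 (none) to 100 (complete control).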

[10] = test system: galium; assay: Test C postemergence; format: in vivo, Galium aparine; conditions: 10 days, 0 to 100 scale (0 no effect, 100 complete control)
Procedure, shortened: as §1

[11] = test system: green foxtail; assay: Test C postemergence; format: in vivo, Setaria viridis; conditions: 10 days, 0 to 100 scale (0 no effect, 100 complete control)
Procedure, shortened: as §1

[12] = test system: soybean; assay: Test C preemergence; format: in vivo, Glycine max
Procedure, shortened: as §1

[13] = test system: corn; assay: Test C postemergence; format: in vivo, Zea mays; conditions: 10 days, 0 to 100 scale (0 no effect, 100 complete control)
Procedure, shortened: as §1

[14] = test system: green foxtail; assay: Test C preemergence; format: in vivo, Setaria viridis
Procedure, shortened: as §1

[15] = test system: ragweed; assay: Test C preemergence; format: in vivo, Ambrosia artemisiifolia
Procedure, shortened: as §1

[16] = test system: ryegrass, Italian; assay: Test C preemergence; format: in vivo, Lolium multiflorum
Procedure, shortened: as §1

[17] = test system: sedge, umbrella; assay: Test D flooded paddy test; format: in vivo, Cyperus difformis; conditions: 250 g ai/ha, applied to paddy water, visual rating after 13 to 14 days, scale 0 to 100 (0 no effect, 100 complete control)
Procedure, shortened: as §2

[18] = test system: pigweed, palmer; assay: Test C postemergence; format: in vivo, Amaranthus palmeri; conditions: 10 days, 0 to 100 scale (0 no effect, 100 complete control)
Procedure, shortened: as §1

[19] = test system: wheat; assay: Test C preemergence; format: in vivo, Triticum aestivum
Procedure, shortened: as §1

[20] = test system: ryegrass, Italian; assay: Test C postemergence; format: in vivo, Lolium multiflorum; conditions: 10 days, 0 to 100 scale (0 no effect, 100 complete control)
Procedure, shortened: as §1

[21] = test system: rice; assay: Test D flooded paddy test; format: in vivo, Oryza sativa; conditions: 250 g ai/ha, applied to paddy water, visual rating after 13 to 14 days, scale 0 to 100 (0 no effect, 100 complete control)
Procedure, shortened: as §2

[22] = test system: pigweed, palmer; assay: Test C preemergence; format: in vivo, Amaranthus palmeri
Procedure, shortened: as §1

[23] = test system: barnyardgrass; assay: Test C postemergence; format: in vivo, Echinochloa crusgalli; conditions: 10 days, 0 to 100 scale (0 no effect, 100 complete control)
Procedure, shortened: as §1

[24] = test system: blackgrass; assay: Test C postemergence; format: in vivo, Alopecurus myosuroides; conditions: 10 days, 0 to 100 scale (0 no effect, 100 complete control)
Procedure, shortened: as §1

[25] = test system: wheat; assay: Test C postemergence; format: in vivo, Triticum aestivum; conditions: 10 days, 0 to 100 scale (0 no effect, 100 complete control)
Procedure, shortened: as §1

[26] = test system: barnyardgrass; assay: Test D flooded paddy test; format: in vivo, Echinochloa crus-galli; conditions: 250 g ai/ha, applied to paddy water, visual rating after 13 to 14 days, scale 0 to 100 (0 no effect, 100 complete control)
Procedure, shortened: as §2

[27] = test system: ragweed; assay: Test C postemergence; format: in vivo, Ambrosia artemisiifolia; conditions: 10 days, 0 to 100 scale (0 no effect, 100 complete control)
Procedure, shortened: as §1

[28] = 500 g ai/ha, preemergence, 0 to 100 scale (0 no effect, 100 complete control)
[29] = Preemergence, 125 g ai/ha, 0 to 100 scale, 0 no effect, 100 complete control

`Cc1ccc(-n2cnc(C(C)O)n2)cc1C(=O)N1CC(C)Oc2c(Cl)cccc21` (mixture of isomers) [Compound 358] was tested, and the “Corn plant response rating” value [1, 28] was 70, the “Plant response rating, Corn” value [1, 29] was 50 and the “Plant response rating, Soybean” value ([2]; 500 g ai/ha, postemergence) was 100. For the same compound, the “Plant response rating, Soybean” value ([2]; Postemergence, 125 g ai/ha) was 100, the “Plant response rating, Horseweed” value ([3]; 500 g ai/ha, postemergence) was 90 and the “Plant response rating, Horseweed” value ([3]; Postemergence, 125 g ai/ha) was 70. The “Plant response rating, Oat, Wild” value ([4]; 500 g ai/ha, postemergence) was 80, the “Plant response rating, Oat, Wild” value ([4]; Postemergence, 125 g ai/ha) was 30 and the “Plant response rating, Kochia” value ([5]; 500 g ai/ha, postemergence) was 70. The “Plant response rating, Kochia” value ([5]; Postemergence, 125 g ai/ha) was 40, the “Blackgrass plant response rating” value [6, 28] was 90 and the “Plant response rating, Blackgrass” value [6, 29] was 80. For the same compound, the “Kochia plant response rating” value [7, 28] was 100, the “Plant response rating, Kochia” value [7, 29] was 20 and the “Barnyardgrass plant response rating” value [8, 28] was 100. The “Plant response rating, Barnyardgrass” value [8, 29] was 100, the “Plant response rating, Ducksalad (Flood)” value [9] was 95 and the “Plant response rating, Galium” value ([10]; 500 g ai/ha, postemergence) was 100. For the same compound, the “Plant response rating, Galium” value ([10]; Postemergence, 125 g ai/ha) was 100, the “Plant response rating, Foxtail, Green” value ([11]; 500 g ai/ha, postemergence) was 90 and the “Plant response rating, Foxtail, Green” value ([11]; Postemergence, 125 g ai/ha) was 90. For the same compound, the “Soybean plant response rating” value [12, 28] was 100, the “Plant response rating, Soybean” value [12, 29] was 100 and the “Plant response rating, Corn” value ([13]; 500 g ai/ha, postemergence) was 90. For the same compound, the “Plant response rating, Corn” value ([13]; Postemergence, 125 g ai/ha) was 90, the “Foxtail, Green plant response rating” value [14, 28] was 100 and the “Plant response rating, Foxtail, Green” value [14, 29] was 100. For the same compound, the “Ragweed plant response rating” value [15, 28] was 90, the “Plant response rating, Ragweed” value [15, 29] was 70 and the “Ryegrass, Italian plant response rating” value [16, 28] was 100. The “Plant response rating, Ryegrass, Italian” value [16, 29] was 90, the “Plant response rating, Sedge, Umbrella (Flood)” value [17] was 90 and the “Plant response rating, Pigweed, Palmer” value ([18]; 500 g ai/ha, postemergence) was 80. For the same compound, the “Plant response rating, Pigweed, Palmer” value ([18]; Postemergence, 125 g ai/ha) was 50, the “Wheat plant response rating” value [19, 28] was 90 and the “Plant response rating, Wheat” value [19, 29] was 50. For the same compound, the “Plant response rating, Ryegrass, Italian” value ([20]; 500 g ai/ha, postemergence) was 100, the “Plant response rating, Ryegrass, Italian” value ([20]; Postemergence, 125 g ai/ha) was 90 and the “Plant response rating, Rice (Flood)” value [21] was 15. For the same compound, the “Pigweed, Palmer plant response rating” value [22, 28] was 100, the “Plant response rating, Pigweed, Palmer” value [22, 29] was 100 and the “Plant response rating, Barnyardgrass” value ([23]; 500 g ai/ha, postemergence) was 100. The “Plant response rating, Barnyardgrass” value ([23]; Postemergence, 125 g ai/ha) was 90, the “Plant response rating, Blackgrass” value ([24]; 500 g ai/ha, postemergence) was 100 and the “Plant response rating, Blackgrass” value ([24]; Postemergence, 125 g ai/ha) was 90. The “Plant response rating, Wheat” value ([25]; 500 g ai/ha, postemergence) was 80, the “Plant response rating, Wheat” value ([25]; Postemergence, 125 g ai/ha) was 50 and the “Plant response rating, Barnyardgrass (Flood)” value [26] was 30. The “Plant response rating, Ragweed” value ([27]; 500 g ai/ha, postemergence) was 80 and the “Plant response rating, Ragweed” value ([27]; Postemergence, 125 g ai/ha) was 50.
